Article PMC8359396, “Pharmacological validation of TDO as a target for Parkinson’s disease” (The Febs Journal, 2021)

How the values were obtained:
TDO activity in vivo = experiment: Trp and Kyn levels in plasma and brain of the PK studies (LC‐MS/MS); set-up: species or system male C57BL/6NCrl mice; conditions: mice, single p.o. 50 mg·kg^−1
SW48 (hTDO) = SW48 (hTDO) (Homo sapiens, UniProt P48775); experiment: cell-based; conditions: SW48, read-out: inhibition in SW48 cells
[1] = In vivo pharmacokinetics and brain penetration; conditions: for AUC: AUCplasma; for Cmax: plasma; for half-life: t½; for Kp uu: Kpuu (unbound brain‐to‐plasma partition coefficient)
[2] = system: rotenone‐induced mouse model of PD; experiment: TH‐positive (dopaminergic) cells in substantia nigra, iDISCO; format: in vivo, male C57BL/6NCrl mice; conditions: rotenone mice; two highest doses (25 and 50 mg·kg^−1); P < 0.01
[3] = biological target: hTDO2‐overexpressing HEK‐293 cells (HEK‐hTDO) (Homo sapiens, UniProt P48775); experiment: Cell-based TDO assay, HEK‐hTDO cells (NFK Green); conditions: HEK293, read-out: inhibition HEK‐hTDO
mouse TDO (mTDO) = mouse TDO (mTDO) (Mus musculus, UniProt P48776); experiment: TDO biochemical assay (NFK Green), mTDO
[4] = system: rotenone‐induced mouse model of PD; experiment: α‐Synuclein immunofluorescent staining of colon in rotenone model; format: in vivo, male C57BL/6NCrl mice; conditions: rotenone mice; all doses: 12.5 mg·kg^−1, P < 0.01; 25 and 50 mg·kg^−1, P < 0.001
Experimental: (§1) Parkinson’s disease is associated with the activation of glial cells in the enteric nervous system. Furthermore, aggregates of α‐synuclein have been observed in the enteric nervous system of PD patients. The expression of glial fibrillary acidic protein (GFAP), a marker of enteric glial cells, and of α‐synuclein was determined by immunofluorescent staining of fixed sections of the colons of the sacrificed mice.
(§2) Expression of GFAP and α‐synuclein in colonic tissue was determined using confocal microscopy (Leica SP8). The colons of the mice were embedded in paraffin. Sections of 15 µm were cut and incubated with 0.3% (v/v) H2O2 for 30 min, rehydrated and incubated with citrate buffer. Following blocking with serum, the sections were incubated overnight with rabbit anti‐α‐synuclein (Millipore, cat. no. AB5038; Burlington, MA, USA) at a dilution of 1 : 1000, or rabbit anti‐GFAP (Dako, cat. no. Z0334), 1 : 1000. After incubation with Alexa® 488‐labeled donkey anti‐rabbit secondary antibody, the slides were mounted using Vectashield® medium for fluorescence with DAPI (Vector Laboratories, cat. no. H‐1000; Burlingame, CA, USA).
(§3) Immunofluorescence images were made using a Keyence BZ‐9000 microscope. GFAP and α‐synuclein staining were quantified by calculation of the corrected total fluorescence (CTF) with the formula: integrated density – (area × mean fluorescence of background reading).

[5] = system: rotenone‐induced mouse model of PD; experiment: Colon length in rotenone model; conditions: rotenone mice; two highest doses (25 and 50 mg·kg^−1); P < 0.05
recombinant hIDO1 = recombinant hIDO1 (Homo sapiens, UniProt P14902); experiment: IDO1 biochemical assay (NFK Green); conditions: read-out: inhibition hIDO1
[6] = system: rotenone‐induced mouse model of PD; experiment: GFAP immunofluorescent staining of colon in rotenone model; format: in vivo, male C57BL/6NCrl mice; conditions: rotenone mice; highest two doses: 25 mg·kg^−1, P < 0.001; 50 mg·kg^−1, P < 0.0001
Experimental: as §1, §2, §3

[7] = system: rotenone‐induced mouse model of PD; experiment: Rotarod test in rotenone model; format: in vivo, male C57BL/6NCrl mice; conditions: highest dose p.o. once daily: 50 mg·kg^−1, P < 0.05
Experimental: To investigate the effects of TDO inhibition, both compounds were orally administered once daily from day 7 after induction of the PD model (Fig. 5A). […] In this test, the time spent on an accelerating wheel was used to analyze motor function.
Food and water was provided ad libitum.
Motor function was assessed in the rotarod test by placing mice on an accelerating rod with speeds starting at 2 rpm and gradually increasing to 20 rpm. The latency to fall was recorded for a maximum of 300 s. Baseline motor function was tested seven days after surgery, and subsequently, motor function was tested every seven days until day 42.

[8] = system: rotenone‐induced mouse model of PD; experiment: Intestinal transit of Evans blue in rotenone model; format: in vivo, male C57BL/6NCrl mice; conditions: two highest doses (25 and 50 mg·kg^−1), P < 0.0001
Experimental: The dye was injected intragastrically, thirty minutes before the sacrifice of the mice. Intestinal transit was measured as the distance travelled by the dye from the pylorus to the most distal part of the colon.

[9] = system: any cell line used in this study; experiment: Cell viability assay (ATPlite 1Step); conditions: in parallel with the cell‐based NFK Green assays
Experimental: In parallel with the cell‐based NFK Green assays, the cytotoxicity of the compounds was determined in cell viability assays using ATPlite™ 1Step (PerkinElmer, Groningen, The Netherlands).

[10] = system: rotenone‐induced mouse model of PD; experiment: Microglia (Iba1) volume and occupied space in substantia nigra, iDISCO; conditions: highest dose (50 mg·kg^−1); P < 0.05
[11] = biological target: human IDO1‐overexpressing HEK‐293 cells (HEK‐hIDO1) (Homo sapiens, UniProt P14902); experiment: Cell-based IDO1 assay, HEK‐hIDO1 cells (NFK Green); conditions: HEK293, read-out: inhibition HEK‐hIDO1
Experimental: Inhibition of Trp‐to‐NFK conversion in HEK‐hTDO, HEK‐hIDO1, and SW48 cells was measured with NFK Green, essentially as described previously for cancer cell lines. Cell density, incubation time, and Trp concentrations were optimized. For the TDO assay with HEK‐hTDO and SW48 cells, 200 µM Trp was added to the culture medium. No additional Trp was added for the IDO1 assay with HEK‐hIDO1 cells. The incubation time with compound was 42 h for the assays with HEK‐hTDO and HEK‐hIDO1 cells, and 18 h for the assay with SW48 cells.

[12] = male, C57BL/6NCrl, mouse, in vivo, iv, 10 mg, mice, 10 mg∙kg^−1
[13] = male, C57BL/6NCrl, mouse, in vivo, po, 50 mg
[14] = male, C57BL/6NCrl, mouse, in vivo, po, 50 mg, mice, 5‐day p.o., 50 mg∙kg^−1
[15] = male, C57BL/6NCrl, mouse, in vivo, po, 50 mg, mice, single p.o., 50 mg∙kg^−1

Sequence of recombinant hIDO1 (P14902 whole entry): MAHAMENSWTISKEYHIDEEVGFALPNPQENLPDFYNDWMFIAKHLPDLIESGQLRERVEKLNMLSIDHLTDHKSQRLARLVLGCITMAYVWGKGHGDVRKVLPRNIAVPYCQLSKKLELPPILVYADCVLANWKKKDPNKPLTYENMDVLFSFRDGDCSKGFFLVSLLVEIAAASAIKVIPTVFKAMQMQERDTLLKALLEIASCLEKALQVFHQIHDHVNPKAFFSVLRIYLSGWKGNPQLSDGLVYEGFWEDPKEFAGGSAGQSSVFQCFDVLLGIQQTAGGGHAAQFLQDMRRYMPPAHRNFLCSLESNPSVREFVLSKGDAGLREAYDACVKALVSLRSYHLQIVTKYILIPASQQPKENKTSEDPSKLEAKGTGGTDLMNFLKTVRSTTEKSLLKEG
Sequence of human IDO1‐overexpressing HEK‐293 cells (HEK‐hIDO1) (P14902 whole entry): as above
Sequence of mouse TDO (mTDO) (P48776 whole entry): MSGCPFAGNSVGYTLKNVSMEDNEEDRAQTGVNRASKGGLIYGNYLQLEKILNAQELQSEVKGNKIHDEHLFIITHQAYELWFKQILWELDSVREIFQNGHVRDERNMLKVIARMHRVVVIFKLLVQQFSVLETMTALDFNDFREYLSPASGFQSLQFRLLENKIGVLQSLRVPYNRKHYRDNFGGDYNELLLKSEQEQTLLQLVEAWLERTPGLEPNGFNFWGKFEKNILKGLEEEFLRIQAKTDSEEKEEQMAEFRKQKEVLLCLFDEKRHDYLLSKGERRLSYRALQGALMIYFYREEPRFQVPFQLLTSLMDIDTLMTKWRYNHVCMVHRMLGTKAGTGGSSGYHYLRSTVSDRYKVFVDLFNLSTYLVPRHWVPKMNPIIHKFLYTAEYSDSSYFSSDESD
Sequence of hTDO2‐overexpressing HEK‐293 cells (HEK‐hTDO) (P48775 whole entry): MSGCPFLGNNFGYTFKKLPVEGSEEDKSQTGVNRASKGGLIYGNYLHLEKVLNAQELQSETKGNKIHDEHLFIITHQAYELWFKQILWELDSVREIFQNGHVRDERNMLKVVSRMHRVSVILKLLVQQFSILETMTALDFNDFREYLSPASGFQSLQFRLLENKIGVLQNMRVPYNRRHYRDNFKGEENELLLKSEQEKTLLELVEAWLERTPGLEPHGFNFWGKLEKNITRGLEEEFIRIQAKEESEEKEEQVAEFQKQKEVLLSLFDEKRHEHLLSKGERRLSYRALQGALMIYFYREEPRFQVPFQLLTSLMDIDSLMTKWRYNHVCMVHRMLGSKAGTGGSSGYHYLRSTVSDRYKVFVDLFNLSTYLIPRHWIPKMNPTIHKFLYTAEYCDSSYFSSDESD
Sequence of SW48 (hTDO) (P48775 whole entry): as above

Fc1ccc2c(/C=C/c3nnn[nH]3)c[nH]c2c1 [LM10, reference compound]
Trp levels in plasma and brain compared to vehicle (TDO activity in vivo): no increase | Kyn levels in plasma (TDO activity in vivo; 0.25 h P < 0.01, 0.5 h P < 0.05): only the initial decrease in Kyn levels was found to be significant | inhibition at 31.6 µM (SW48 (hTDO)): 50% | bioavailability ([1]; male, C57BL/6NCrl, mouse, in vivo, 50 mg/kg, F (oral bioavailability), mice, single p.o. 50 mg∙kg^−1 compared with i.v. 10 mg∙kg^−1): 63% | AUC [1, 12]: 985 µM·h | Cmax [1, 12]: 427 µM | half-life [1, 12]: 1.77 h | Kp [1, 13]: 0.006 | Kp at 5 days [1, 13]: 0.01 | AUC [1, 14]: 2360 µM·h | AUC [1, 15]: 3100 µM·h | Cmax [1, 14]: 391 µM | Cmax [1, 15]: 688 µM | Kp uu [1, 14]: 0.02 | Kp uu [1, 15]: 0.012 | half-life [1, 14]: 2.35 h | half-life [1, 15]: 3.09 h | AUCbrain ([1]; mice, 5‐day p.o., 50 mg∙kg^−1): 23.8 µM·h | F (oral bioavailability) ([1]; mice, single p.o. 50 mg∙kg^−1 compared with i.v. 10 mg∙kg^−1): 63.1% | AUCbrain ([1]; mice, single p.o., 50 mg∙kg^−1): 18.5 µM·h | rotenone‐induced loss of TH‐positive cells in the SN [2]: decreased the rotenone‐induced loss of TH‐positive cells | inhibition at 0.6 µM [3]: 33% | IC50 (mouse TDO (mTDO)): 1070 nM | expression of α‐synuclein in the enteric plexus [4]: decrease in the expression of α‐synuclein | colon length (rotenone‐induced intestinal inflammatory response) [5]: reduced the rotenone‐induced intestinal inflammatory response | inhibition at 0.6 µM (recombinant hIDO1): < 20% | GFAP staining in colon [6]: decrease of GFAP staining | motor function (rotarod) of rotenone‐treated mice [7]: significantly improved motor function | intestinal transit of the PD mice [8]: improved the intestinal transit | cytotoxicity [9]: not cytotoxic | mean microglia volume in the SN of rotenone‐treated mice [10]: reduced the mean microglia volume | inhibition at 0.6 µM [11]: < 20%
